Measurements reported in patent publication EP4238973A1, “SUBSTITUTED 1,2,4-THIADIAZOLYL ISONICOTINAMIDES, SALTS OR N-OXIDES THEREOF AND THEIR USE AS HERBICIDALLY ACTIVE SUBSTANCES” (Bayer AG, priority 2022, dated 2023).

Experiments:
Assay type in all cases: in vivo
Amaranthus retroflexus [1] = test: Herbicidal pre-emergence action; conditions: 1280 g/ha, visual grading after ca. 3 weeks vs untreated controls
Source text: (§1) Seeds of mono- and dicotyledonous weed plants were sown in plastic pots (double sowings with one species of mono- and one species of dicotyledonous weed plants per pot), in sandy loam, and covered with soil. The compounds according to the invention, formulated in the form of wettable powders (WP) or as emulsifiable concentrates (EC), were applied to the surface of the covering soil as an aqueous suspension or as an emulsion, with the addition of 0.5% of an additive, at an application rate of 600 litres of water per hectare (converted). Following treatment, the pots were placed in a greenhouse and kept under optimum growth conditions for the test plants. The visual grading of the damage to the test plants is carried out after ca. 3 weeks in comparison to untreated controls (herbicidal effect in percent (%): 100% effect = plants have died, 0% effect = as control plants). Seeds of mono- and dicotyledonous weed plants were sown in plastic pots (double sowings with one species of mono- and one species of dicotyledonous weed plants per pot), in sandy loam, and covered with soil. The compounds according to the invention, formulated in the form of wettable powders (WP) or as emulsifiable concentrates (EC), were applied to the surface of the covering soil as an aqueous suspension or as an emulsion, with the addition of 0.5% of an additive, at an application rate of 600 litres of water per hectare (converted). Following treatment, the pots were placed in a greenhouse and kept under optimum growth conditions for the test plants. The visual grading of the damage to the test plants is carried out after ca. 3 weeks in comparison to untreated controls (herbicidal effect in percent (%): 100% effect = plants have died, 0% effect = as control plants).

Digitaria sanguinalis [2] = test: Herbicidal pre-emergence action; conditions: 1280 g/ha, visual grading after ca. 3 weeks vs untreated controls
Source text: as §1

Kochia scoparia [3] = test: Herbicidal pre-emergence action; conditions: 1280 g/ha, visual grading after ca. 3 weeks vs untreated controls
Source text: as §1

Lolium rigidum [4] = test: Herbicidal pre-emergence action; conditions: 1280 g/ha, visual grading after ca. 3 weeks vs untreated controls
Source text: as §1

Matricaria inodora [5] = test: Herbicidal pre-emergence action; conditions: 1280 g/ha, visual grading after ca. 3 weeks vs untreated controls
Source text: as §1

Poa annua [6] = test: Herbicidal pre-emergence action; conditions: visual grading after ca. 3 weeks vs untreated controls
Source text: as §1

Setaria viridis [7] = test: Herbicidal pre-emergence action; conditions: 1280 g/ha, visual grading after ca. 3 weeks vs untreated controls
Source text: as §1

Stellaria media [8] = test: Herbicidal pre-emergence action; conditions: visual grading after ca. 3 weeks vs untreated controls
Source text: as §1

Veronica persica [9] = test: Herbicidal pre-emergence action; conditions: 1280 g/ha, visual grading after ca. 3 weeks vs untreated controls
Source text: as §1

Alopecurus myosuroides = test: Herbicidal post-emergence action; conditions: 1280 g/ha, visual assessment after ca. 3 weeks vs untreated controls
Source text: (§2) Seeds of mono- and dicotyledonous weed plants were sown in plastic pots (double sowings with one species of mono- and one species of dicotyledonous weed plants per pot), in sandy loam, covered with soil and grown under controlled growth conditions. 2 to 3 weeks after sowing, the test plants were sprayed in the single-leaf stage. The compounds according to the invention, formulated in the form of wettable powders (WP) or as emulsifiable concentrates (EC), were sprayed onto the green plant parts as an aqueous suspension or as an emulsion, with the addition of 0.5% of an additive, at an application rate of 600 litres of water per hectare (converted). The test plants were placed in the greenhouse for ca. 3 weeks under optimum growth conditions, and then the effect of the preparations is assessed visually in comparison with untreated controls (herbicidal effect in percent (%): 100% effect = plants have died, 0% effect = as control plants).
as §2, with “(EC), are” for “(EC), were”, “controls (herbicidaleffectinpercent(%):100%effect=plantshavedied,0%effect=ascontrolplants). [formula]” for “controls (herbicidal effect in percent (%): 100% effect = plants have died, 0% effect = as control plants).”

Amaranthus retroflexus [10] = test: Herbicidal post-emergence action; conditions: 1280 g/ha, visual assessment after ca. 3 weeks vs untreated controls
Source text: as §2
as §2, with “(EC), are” for “(EC), were”, “controls (herbicidaleffectinpercent(%):100%effect=plantshavedied,0%effect=ascontrolplants). [formula]” for “controls (herbicidal effect in percent (%): 100% effect = plants have died, 0% effect = as control plants).”

Digitaria sanguinalis [11] = test: Herbicidal post-emergence action; conditions: visual assessment after ca. 3 weeks vs untreated controls
Source text: as §2
as §2, with “(EC), are” for “(EC), were”, “controls (herbicidaleffectinpercent(%):100%effect=plantshavedied,0%effect=ascontrolplants). [formula]” for “controls (herbicidal effect in percent (%): 100% effect = plants have died, 0% effect = as control plants).”

Kochia scoparia [12] = test: Herbicidal post-emergence action; conditions: 1280 g/ha, visual assessment after ca. 3 weeks vs untreated controls
Source text: as §2
as §2, with “(EC), are” for “(EC), were”, “controls (herbicidaleffectinpercent(%):100%effect=plantshavedied,0%effect=ascontrolplants). [formula]” for “controls (herbicidal effect in percent (%): 100% effect = plants have died, 0% effect = as control plants).”

Lolium rigidum [13] = test: Herbicidal post-emergence action; conditions: 1280 g/ha, visual assessment after ca. 3 weeks vs untreated controls
Source text: as §2
as §2, with “(EC), are” for “(EC), were”, “controls (herbicidaleffectinpercent(%):100%effect=plantshavedied,0%effect=ascontrolplants). [formula]” for “controls (herbicidal effect in percent (%): 100% effect = plants have died, 0% effect = as control plants).”

Matricaria inodora [14] = test: Herbicidal post-emergence action; conditions: 1280 g/ha, visual assessment after ca. 3 weeks vs untreated controls
Source text: as §2
as §2, with “(EC), are” for “(EC), were”, “controls (herbicidaleffectinpercent(%):100%effect=plantshavedied,0%effect=ascontrolplants). [formula]” for “controls (herbicidal effect in percent (%): 100% effect = plants have died, 0% effect = as control plants).”

Poa annua [15] = test: Herbicidal post-emergence action; conditions: visual assessment after ca. 3 weeks vs untreated controls
Source text: as §2
as §2, with “(EC), are” for “(EC), were”, “controls (herbicidaleffectinpercent(%):100%effect=plantshavedied,0%effect=ascontrolplants). [formula]” for “controls (herbicidal effect in percent (%): 100% effect = plants have died, 0% effect = as control plants).”

Setaria viridis [16] = test: Herbicidal post-emergence action; conditions: visual assessment after ca. 3 weeks vs untreated controls
Source text: as §2
as §2, with “(EC), are” for “(EC), were”, “controls (herbicidaleffectinpercent(%):100%effect=plantshavedied,0%effect=ascontrolplants). [formula]” for “controls (herbicidal effect in percent (%): 100% effect = plants have died, 0% effect = as control plants).”

Stellaria media [17] = test: Herbicidal post-emergence action; conditions: visual assessment after ca. 3 weeks vs untreated controls
Source text: as §2
as §2, with “(EC), are” for “(EC), were”, “controls (herbicidaleffectinpercent(%):100%effect=plantshavedied,0%effect=ascontrolplants). [formula]” for “controls (herbicidal effect in percent (%): 100% effect = plants have died, 0% effect = as control plants).”

Veronica persica [18] = test: Herbicidal post-emergence action; conditions: visual assessment after ca. 3 weeks vs untreated controls
Source text: as §2
as §2, with “(EC), are” for “(EC), were”, “controls (herbicidaleffectinpercent(%):100%effect=plantshavedied,0%effect=ascontrolplants). [formula]” for “controls (herbicidal effect in percent (%): 100% effect = plants have died, 0% effect = as control plants).”

O=C(Nc1ncns1)c1ccncc1I [Example 1-004]
herbicidal effect in percent (%), AMARE (Amaranthus retroflexus [1]): 90%
herbicidal effect in percent (%), DIGSA (Digitaria sanguinalis [2]): 90%
herbicidal effect in percent (%), KCHSC (Kochia scoparia [3]): 90%
herbicidal effect in percent (%), LOLRI (Lolium rigidum [4]): 100%
herbicidal effect in percent (%), MATIN (Matricaria inodora [5]): 90%
herbicidal effect in percent (%), POAAN (Poa annua [6]; 320 g/ha): 90%
herbicidal effect in percent (%), POAAN (Poa annua [6]; 1280 g/ha): 90%
herbicidal effect in percent (%), SETVI (Setaria viridis [7]): 90%
herbicidal effect in percent (%), STEME (Stellaria media [8]; 320 g/ha): 90%
herbicidal effect in percent (%), STEME (Stellaria media [8]; 1280 g/ha): 90%
herbicidal effect in percent (%), VERPE (Veronica persica [9]): 90%
herbicidal effect in percent (%), ALOMY (Alopecurus myosuroides): 100%
herbicidal effect in percent (%), AMARE (Amaranthus retroflexus [10]): 100%
herbicidal effect in percent (%), DIGSA (Digitaria sanguinalis [11]; 320 g/ha): 90%
herbicidal effect in percent (%), DIGSA (Digitaria sanguinalis [11]; 1280 g/ha): 100%
herbicidal effect in percent (%), KCHSC (Kochia scoparia [12]): 90%
herbicidal effect in percent (%), LOLRI (Lolium rigidum [13]): 100%
herbicidal effect in percent (%), MATIN (Matricaria inodora [14]): 100%
herbicidal effect in percent (%), POAAN (Poa annua [15]; 320 g/ha): 100%
herbicidal effect in percent (%), POAAN (Poa annua [15]; 1280 g/ha): 100%
herbicidal effect in percent (%), SETVI (Setaria viridis [16]; 320 g/ha): 90%
herbicidal effect in percent (%), SETVI (Setaria viridis [16]; 1280 g/ha): 90%
herbicidal effect in percent (%), STEME (Stellaria media [17]; 320 g/ha): 100%
herbicidal effect in percent (%), STEME (Stellaria media [17]; 1280 g/ha): 100%
herbicidal effect in percent (%), VERPE (Veronica persica [18]; 320 g/ha): 100%
herbicidal effect in percent (%), VERPE (Veronica persica [18]; 1280 g/ha): 100%
